Earlier results in patent publication US20100055178A1, “ENTERIC-COATED CREATINE COMPOSITIONS AND METHODS OF USE THEREOF” (priority 2008, published 2010).

Columns and labels:
[1] = acidic solutions, pH 3-6
[2] = 5 grams, 4-6 times a day, for two or more days, oral

## CN(CC(=O)O)C(=N)N [creatine]
[1]
  rate of conversion of creatine to creatinine: almost instantaneous
[2]
  total creatine concentration: significant increase
